ChEMBL document CHEMBL5257144, “Novel Serine-Arginine Protein Kinase Inhibitors for Treating Cancer” (ACS Med Chem Lett, 2023)

Each molecule was assayed against SRSF protein kinase 1 (Homo sapiens, UniProt Q96SB4) (assay: Inhibition of SRPK1 (unknown origin) using RS peptide as substrate incubated for 120 mins in the presence 33P-ATP).
Chain of SRSF protein kinase 1 (Q96SB4 whole entry): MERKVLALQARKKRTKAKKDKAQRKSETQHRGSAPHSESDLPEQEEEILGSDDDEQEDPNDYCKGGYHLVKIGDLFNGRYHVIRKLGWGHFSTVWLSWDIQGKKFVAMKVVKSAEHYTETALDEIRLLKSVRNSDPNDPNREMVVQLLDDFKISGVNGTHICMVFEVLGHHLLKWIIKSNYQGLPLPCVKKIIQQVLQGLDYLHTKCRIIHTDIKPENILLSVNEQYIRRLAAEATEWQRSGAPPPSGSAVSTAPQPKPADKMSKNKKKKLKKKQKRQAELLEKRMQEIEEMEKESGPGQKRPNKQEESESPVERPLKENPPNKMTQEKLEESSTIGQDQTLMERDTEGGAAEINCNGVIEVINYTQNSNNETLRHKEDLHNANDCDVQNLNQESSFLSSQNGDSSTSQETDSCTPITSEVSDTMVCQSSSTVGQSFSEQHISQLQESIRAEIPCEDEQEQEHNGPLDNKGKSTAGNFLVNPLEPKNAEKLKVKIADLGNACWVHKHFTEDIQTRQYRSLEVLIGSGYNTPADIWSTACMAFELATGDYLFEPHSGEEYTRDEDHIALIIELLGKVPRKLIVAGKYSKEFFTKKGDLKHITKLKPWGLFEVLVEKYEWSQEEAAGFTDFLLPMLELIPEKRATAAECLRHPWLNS

IC50, < 50 nM:
CC(C)c1ccc2[nH]c(-c3ncc(NCc4cccnc4N(C)S(C)(=O)=O)cn3)nc2c1
CN(c1ncccc1CNc1cnc(-c2nc3cc(F)cc(F)c3[nH]2)nc1)S(C)(=O)=O
CN(c1ncccc1CNc1cnc(-c2nc3cc(-c4cnn(C)c4)ccc3[nH]2)nc1)S(C)(=O)=O
CN(c1ncccc1CNc1cnc(-c2nc3cc(Cl)cc(F)c3[nH]2)nc1)S(C)(=O)=O
CN(c1ncccc1CNc1ccc(-c2nc3cc(Cl)ccc3[nH]2)nc1)S(C)(=O)=O
Cc1ccc2nc(-c3ncc(NCc4cccnc4N(C)S(C)(=O)=O)cn3)[nH]c2c1
